In patent publication US20150105252A1, “SUBSTITUTED PYRAZOLES AS HERBICIDES” (E I DU PONT DE NEMOURS AND COMPANY, priority 2013, published 2015):

Columns and labels:
barnyardgrass [1] = assay: Test A preemergence; type: in vivo, Echinochloa crus-galli
How it was run: (§1)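 Ratings express plant response from 0 (no effect) to 100 (complete control), judged visually against untreated controls after approximately 10 days in the greenhouse. Preemergence applications were made as directed soil sprays onto seeded loam–sand mix, and postemergence applications onto 2–10 cm plants at one- to two-leaf stage.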

crabgrass, large [2] = assay: Test A preemergence; type: in vivo, Digitaria sanguinalis; conditions: for Crabgrass, Large plant response rating (0 to 100 scale): visual injury approx. 10 days after treatment
How it was run: as §1

foxtail, giant [3] = assay: Test A preemergence; type: in vivo, Setaria faberii; conditions: for Foxtail, Giant plant response rating (0 to 100 scale): visual injury approx. 10 days after treatment
How it was run: as §1

morningglory [4] = assay: Test A preemergence; type: in vivo, Ipomoea spp.; conditions: for Morningglory plant response rating (0 to 100 scale): visual injury approx. 10 days after treatment
How it was run: as §1

pigweed [5] = assay: Test A preemergence; type: in vivo, Amaranthus retroflexus; conditions: for Pigweed plant response rating (0 to 100 scale): visual injury approx. 10 days after treatment
How it was run: as §1

velvetleaf [6] = assay: Test A preemergence; type: in vivo, Abutilon theophrasti; conditions: for Velvetleaf plant response rating (0 to 100 scale): visual injury approx. 10 days after treatment
How it was run: as §1

wheat [7] = assay: Test A preemergence; type: in vivo, Triticum aestivum; conditions: preemergence; for Wheat plant response rating (0 to 100 scale): visual injury approx. 10 days after treatment
How it was run: as §1

corn [8] = assay: Test A preemergence; type: in vivo, Zea mays; conditions: for Corn plant response rating (0 to 100 scale): visual injury approx. 10 days after treatment
How it was run: as §1

barnyardgrass [9] = assay: Test A postemergence; type: in vivo, Echinochloa crus-galli
How it was run: as §1

crabgrass, large [10] = assay: Test A postemergence; type: in vivo, Digitaria sanguinalis
How it was run: as §1

foxtail, giant [11] = assay: Test A postemergence; type: in vivo, Setaria faberii
How it was run: as §1

morningglory [12] = assay: Test A postemergence; type: in vivo, Ipomoea spp.
How it was run: as §1

pigweed [13] = assay: Test A postemergence; type: in vivo, Amaranthus retroflexus
How it was run: as §1

velvetleaf [14] = assay: Test A postemergence; type: in vivo, Abutilon theophrasti
How it was run: as §1

wheat [15] = assay: Test A postemergence; type: in vivo, Triticum aestivum
How it was run: as §1

corn [16] = assay: Test A postemergence; type: in vivo, Zea mays
How it was run: as §1

rice = assay: Test B flood; type: in vivo, Oryza sativa; conditions: 250 g ai/ha, visual rating on 0 to 100 scale (0 no effect, 100 complete control), 13 to 15 days
How it was run: (§2)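 Paddy-water application: seedlings at 2-leaf stage, flood depth 3 cm maintained for the test duration. Evaluation after 13–15 days in the greenhouse by eye relative to controls; 0–100 scale.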

sedge, umbrella = assay: Test B flood; type: in vivo, Cyperus difformis; conditions: 250 g ai/ha, visual rating on 0 to 100 scale (0 no effect, 100 complete control), 13 to 15 days
How it was run: as §2

ducksalad = assay: Test B flood; type: in vivo, Heteranthera limosa; conditions: 250 g ai/ha, visual rating on 0 to 100 scale (0 no effect, 100 complete control), 13 to 15 days
How it was run: as §2

barnyardgrass [17] = assay: Test B flood; type: in vivo, Echinochloa crus-galli; conditions: 250 g ai/ha, visual rating on 0 to 100 scale (0 no effect, 100 complete control), 13 to 15 days
How it was run: as §2

[18] = preemergence, 125 g ai/ha, visual injury, 0 to 100 scale, approx. 10 days
[19] = preemergence, 500 g ai/ha, visual injury after approx. 10 days, 0 to 100 scale (0 no effect, 100 complete control)
[20] = 500 g ai/ha, visual injury after approx. 10 days, 0 to 100 scale (0 no effect, 100 complete control)
[21] = Postemergence, 500 g ai/ha, 0 to 100 scale (0 no effect, 100 complete control)
[22] = postemergence, 125 g ai/ha, about 10 days, visual rating on 0 to 100 scale (0 no effect, 100 complete control)
[23] = Preemergence, 500 g ai/ha, 0 to 100 scale, 0 no effect, 100 complete control
[24] = Postemergence, 500 g ai/ha, visual rating after approx. 10 days, 0 to 100 scale (0 no effect, 100 complete control)

Structure (SMILES): CCc1cc(C(=O)NC2CC2)nn1Cc1nnc(C(F)(F)F)o1 [Compound 172]
- Barnyardgrass plant response rating (barnyardgrass [1]; [18]): 0
- Barnyardgrass plant response rating (barnyardgrass [1]; [19]): 50
- Crabgrass, Large plant response rating (0 to 100 scale) (crabgrass, large [2]; preemergence, 125 g ai/ha): 50
- Crabgrass, Large plant response rating (crabgrass, large [2]; [19]): 90
- Foxtail, Giant plant response rating (0 to 100 scale) (foxtail, giant [3]; preemergence, 125 g ai/ha): 20
- Foxtail, Giant plant response rating (foxtail, giant [3]; [19]): 50
- Morningglory plant response rating (0 to 100 scale) (morningglory [4]; preemergence, 125 g ai/ha): 30
- Morningglory plant response rating (morningglory [4]; [19]): 40
- Pigweed plant response rating (0 to 100 scale) (pigweed [5]; preemergence, 125 g ai/ha): 80
- Pigweed plant response rating (pigweed [5]; [19]): 100
- Velvetleaf plant response rating (0 to 100 scale) (velvetleaf [6]; preemergence, 125 g ai/ha): 10
- Velvetleaf plant response rating (velvetleaf [6]; [19]): 20
- Wheat plant response rating (0 to 100 scale) (wheat [7]; 125 g ai/ha): 0
- Wheat plant response rating (wheat [7]; [20]): 0
- Corn plant response rating (0 to 100 scale) (corn [8]; preemergence, 125 g ai/ha): 0
- Corn plant response rating (corn [8]; [19]): 10
- Barnyardgrass plant response rating (barnyardgrass [9]; [21]): 10
- Barnyardgrass plant response rating (barnyardgrass [9]; [22]): 0
- Crabgrass, Large plant response rating (crabgrass, large [10]; [21]): 20
- Crabgrass, Large plant response rating (crabgrass, large [10]; [22]): 10
- Foxtail, Giant plant response rating (foxtail, giant [11]; [21]): 10
- Foxtail, Giant plant response rating (foxtail, giant [11]; [22]): 0
- Morningglory plant response rating (morningglory [12]; [21]): 70
- Morningglory plant response rating (morningglory [12]; [22]): 30
- Pigweed plant response rating (pigweed [13]; [21]): 80
- Pigweed plant response rating (pigweed [13]; [22]): 30
- Velvetleaf plant response rating (velvetleaf [14]; [21]): 20
- Velvetleaf plant response rating (velvetleaf [14]; [22]): 10
- Wheat plant response rating (wheat [15]; [21]): 0
- Wheat plant response rating (wheat [15]; [22]): 0
- Corn plant response rating (corn [16]; [21]): 10
- Corn plant response rating (corn [16]; [22]): 0
- Plant response rating, Rice (rice): 0
- Plant response rating, Sedge, Umbrella (sedge, umbrella): 0
- Plant response rating, Ducksalad (ducksalad): 0
- Plant response rating, Barnyardgrass (barnyardgrass [17]): 0

Structure (SMILES): CCCCNC(=O)c1cc(C)n(Oc2ccnc(C(F)(F)F)c2)n1 [Compound 85]
- Barnyardgrass plant response rating (barnyardgrass [1]; [23]): 30
- Barnyardgrass plant response rating (barnyardgrass [1]; [18]): 0
- Crabgrass, Large plant response rating (crabgrass, large [2]; [23]): 80
- Crabgrass, Large plant response rating (crabgrass, large [2]; [18]): 20
- Foxtail, Giant plant response rating (foxtail, giant [3]; [23]): 50
- Foxtail, Giant plant response rating (foxtail, giant [3]; [18]): 0
- Morningglory plant response rating (morningglory [4]; [23]): 10
- Morningglory plant response rating (morningglory [4]; [18]): 0
- Pigweed plant response rating (pigweed [5]; [23]): 0
- Pigweed plant response rating (pigweed [5]; [18]): 0
- Velvetleaf plant response rating (velvetleaf [6]; [23]): 0
- Velvetleaf plant response rating (velvetleaf [6]; [18]): 0
- Wheat plant response rating (wheat [7]; 125 g ai/ha, visual injury, 0 to 100 scale, approx. 10 days): 0
- Wheat plant response rating (wheat [7]; [20]): 0
- Corn plant response rating (corn [8]; [23]): 0
- Corn plant response rating (corn [8]; [18]): 0
- Barnyardgrass plant response rating (barnyardgrass [9]; Postemergence, 125 g ai/ha, 0 to 100 scale, 0 no effect, 100 complete control): 0
- Barnyardgrass plant response rating (barnyardgrass [9]; [24]): 10
- Crabgrass, Large plant response rating (crabgrass, large [10]; [24]): 20
- Crabgrass, Large plant response rating (crabgrass, large [10]; [22]): 10
- Foxtail, Giant plant response rating (foxtail, giant [11]; [24]): 20
- Foxtail, Giant plant response rating (foxtail, giant [11]; [22]): 0
- Morningglory plant response rating (morningglory [12]; [24]): 40
- Morningglory plant response rating (morningglory [12]; [22]): 10
- Pigweed plant response rating (pigweed [13]; [24]): 10
- Pigweed plant response rating (pigweed [13]; [22]): 0
- Velvetleaf plant response rating (velvetleaf [14]; [24]): 10
- Velvetleaf plant response rating (velvetleaf [14]; [22]): 0
- Wheat plant response rating (wheat [15]; [24]): 0
- Wheat plant response rating (wheat [15]; [22]): 0
- Corn plant response rating (corn [16]; [24]): 10
- Corn plant response rating (corn [16]; [22]): 0
- Plant response rating, Rice (rice): 0
- Plant response rating, Sedge, Umbrella (sedge, umbrella): 0
- Plant response rating, Ducksalad (ducksalad): 0
- Plant response rating, Barnyardgrass (barnyardgrass [17]): 0

Structure (SMILES): O=C(NCC(F)(F)F)c1cc(Cl)n(Cc2cccc(C(F)(F)F)c2)n1 [Compound 170]
- Barnyardgrass plant response rating (barnyardgrass [1]; [18]): 0
- Barnyardgrass plant response rating (barnyardgrass [1]; [19]): 0
- Crabgrass, Large plant response rating (0 to 100 scale) (crabgrass, large [2]; preemergence, 125 g ai/ha): 10
- Crabgrass, Large plant response rating (crabgrass, large [2]; [19]): 70
- Foxtail, Giant plant response rating (0 to 100 scale) (foxtail, giant [3]; preemergence, 125 g ai/ha): 0
- Foxtail, Giant plant response rating (foxtail, giant [3]; [19]): 50
- Morningglory plant response rating (0 to 100 scale) (morningglory [4]; preemergence, 125 g ai/ha): 0
- Morningglory plant response rating (morningglory [4]; [19]): 0
- Pigweed plant response rating (0 to 100 scale) (pigweed [5]; preemergence, 125 g ai/ha): 0
- Pigweed plant response rating (pigweed [5]; [19]): 60
- Velvetleaf plant response rating (0 to 100 scale) (velvetleaf [6]; preemergence, 125 g ai/ha): 0
- Velvetleaf plant response rating (velvetleaf [6]; [19]): 0
- Wheat plant response rating (0 to 100 scale) (wheat [7]; 125 g ai/ha): 0
- Wheat plant response rating (wheat [7]; [20]): 0
- Corn plant response rating (0 to 100 scale) (corn [8]; preemergence, 125 g ai/ha): 0
- Corn plant response rating (corn [8]; [19]): 0
- Barnyardgrass plant response rating (barnyardgrass [9]; [21]): 30
- Barnyardgrass plant response rating (barnyardgrass [9]; [22]): 10
- Crabgrass, Large plant response rating (crabgrass, large [10]; [21]): 30
- Crabgrass, Large plant response rating (crabgrass, large [10]; [22]): 20
- Foxtail, Giant plant response rating (foxtail, giant [11]; [21]): 10
- Foxtail, Giant plant response rating (foxtail, giant [11]; [22]): 0
- Morningglory plant response rating (morningglory [12]; [21]): 20
- Morningglory plant response rating (morningglory [12]; [22]): 10
- Pigweed plant response rating (pigweed [13]; [21]): 80
- Pigweed plant response rating (pigweed [13]; [22]): 60
- Velvetleaf plant response rating (velvetleaf [14]; [21]): 40
- Velvetleaf plant response rating (velvetleaf [14]; [22]): 0
- Wheat plant response rating (wheat [15]; [21]): 0
- Wheat plant response rating (wheat [15]; [22]): 0
- Corn plant response rating (corn [16]; [21]): 10
- Corn plant response rating (corn [16]; [22]): 0
- Plant response rating, Rice (rice): 0
- Plant response rating, Sedge, Umbrella (sedge, umbrella): 0
- Plant response rating, Ducksalad (ducksalad): 0
- Plant response rating, Barnyardgrass (barnyardgrass [17]): 0
